Source: US10857105B2, “Compounds and compositions for intracellular delivery of therapeutic agents” (ModernaTX, Inc., priority 2017, dated 2020)

How the values were obtained:
[1] = Particle size and polydispersity index of nanoparticle compositions (Zetasizer Nano ZS); type: physicochemical
Method in brief: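 Formulations of ionizable lipid, DSPC, cholesterol and PEG-DMG (50:10:38.5:1.5 mol %) carrying Luc or hEPO mRNA with all uridines as N1-methyl pseudouridine. Dynamic light scattering in 1×PBS gave particle size and polydispersity; zeta potential read in 15 mM PBS.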

[2] = Encapsulation efficiency of RNA in nanoparticle compositions (RIBOGREEN assay); type: physicochemical
Method in brief: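 Lipid nanoparticles (ionisable lipid:DSPC:cholesterol:PEG-DMG 50:10:38.5:1.5 mol %) carrying N1-methylpseudouridine luciferase or hEPO mRNA diluted to about 5 μg/mL in TE, pH 7.5, with or without 2% Triton X-100, 15 min at 37° C. RiboGreen fluorescence (ex ~480, em ~520 nm) blank-subtracted; free RNA = intact/disrupted signal.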

luciferase (Luc) mRNA = assay: Luciferase expression (whole body bioluminescence) after intravenous administration to mice; type: in vivo; settings: Table 3G, intravenous, luciferase, 6 hr. timepoint, relative to MC3
Method in brief: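 Luc mRNA nanoparticles were given IV at 0.5 mg/kg to groups of six mice, and whole-body bioluminescent flux was imaged 3, 6 and 24 h post-dose. Flux AUC for each lipid formulation was reported as a ratio to the MC3 reference formulation.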

[3] = Lipid clearance: mouse liver tissue level and % dose remaining in liver after intravenous administration; type: in vivo; settings: mouse, liver, 0.5 mg/kg
modified luciferase = assay: Luciferase expression in liver, lung, spleen and femur 6 hours after intravenous administration to mice; type: in vivo; settings: 6 hours after intravenous 0.5 mpk, mice
Method in brief: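 Mice (n=3) got a single 0.5 mpk IV dose of each nanoparticle composition, with MC3 and PBS controls alongside. Organ luminescence flux was read 6 h post-dose.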

IL-6, IP-10 = assay: Cytokine induction (IL-6, IP-10) in mice 6 hours after intravenous administration; type: in vivo; set-up: unit not given here; settings: intravenous 0.5 mpk
Method in brief: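 IL-6 and IP-10 concentrations determined 6 hours after a single intravenous 0.5 mpk dose of lipid nanoparticle formulation in mice, with MC3 and PBS as comparators.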

[4] = Chemical stability of lipids in ethanol at room temperature and 37° C. (lipid purity); type: physicochemical
Method: Ester linkages were previously reported to trigger metabolism by esterases in vivo. (See Fukami, T. et al. Drug Metab. Pharmacokinet. 2012, 27, 466-477, the content of which is incorporated by reference herein in its entirety). […] (See Maier M. A., Mol. Ther. 2013, 21, 1570-1578, the content of which is incorporated herein in its entirety) First, the chemical stability of the lipids was evaluated by measuring ethanol stability at room temperature and 37° C. (Table 39). […] LNPs formed with compound 138 were larger, with a surface pKa>7. […] Removal of one ester function (compound 136) afforded LNPs with improved physiochemical characteristics and lower LNP surface pKa.

[5] = Table 1D, compositions for subcutaneous administration, # formulated with hEPO mRNA
[6] = Table 1A, lipid:DSPC:cholesterol:PEG-DMG 50:10:38.5:1.5 mol %
[7] = Table 1B, formulated with hEPO mRNA

In the case of `CCCCCCCCCC(=O)OC(C)CCCCCCN(CCO)CCCCCCCC(=O)OC(CCCCCCCC)CCCCCCCC` (stereo not drawn) [Compound 98, 8-((8-(Heptadecan-9-yloxy)-8-oxooctyl)(2-hydroxyethyl)amino)octan-2-yl decanoate], the Size [1, 5] is reported as 74.8 nm, the EE [2, 6] is reported as 94.4% and the “Novel lipid/MC3 ratio, i.v.” value (luciferase (Luc) mRNA) is reported as 3.16. For the same compound, the concentration at 6 h [3] was 24800 ng/g and the concentration at 24 h [3] was 13600 ng/g.

For `CCCCC/C=C\C/C=C\CCCCCCCCN(CCO)CCCCCCCC(=O)OCCCCCCCCC` [Compound 136, Nonyl 8-((2-hydroxyethyl)((9Z,12Z)-octadeca-9,12-dien-1-yl)amino)octanoate], the EE [2, 6] was 90.9%, the “Total Flux, Femur” value (modified luciferase) was 6.60E+05 and the “Total Flux, Liver” value (modified luciferase) was 1.34E+08. For the same compound, the “Total Flux, Lung” value (modified luciferase) was 8.91E+05, the “Total Flux, Spleen” value (modified luciferase) was 2.77E+07 and the “Cytokine induction, IL-6” value (IL-6, IP-10) was 28.69. The “Cytokine induction, IP-10” value (IL-6, IP-10) was 887.91, the “Lipid Purity, t = 96 h, 25° C.” value [4] was 93.17% and the “Lipid Purity, t = 96 h, 37° C.” value [4] was 93.86%. For the same compound, the “Lipid Purity, t = 0” value [4] was 91.81%.

`CCCCCCCCCOC(=O)CCCCCCCN(CCO)CCCCCCCC(=O)OC(CCC1CC1CCCC)CCC1CC1CCCC` (stereo not drawn) [Compound 160, 1,5-Bis(2-butylcyclopropyl)pentan-3-yl 8-((2-hydroxyethyl)(8-(nonyloxy)-8-oxooctyl)amino)octanoate] gave a Size [1, 6] of 89.0 nm, an EE [2, 6] of 94.0% and a concentration at 6 h [3] of 51.5 ng/g. For the same compound, the concentration at 24 h [3] was 0 ng/g.

`CCCCCCCCC(CCCCCCCC)OC(=O)CCCCCCCN(CCO)C(C)CCCCCCCCOC(=O)CCCCCCC` (stereo not drawn) [Compound 161, Heptadecan-9-yl 8-((2-hydroxyethyl)(10-(octanoyloxy)decan-2-yl)amino)octanoate] gave a Size [1, 6] of 67.6 nm, an EE [2, 6] of 94.3% and a concentration at 6 h [3] of 187 ng/g. The concentration at 24 h [3] was 0 ng/g.

Work on `CCCCCCCCC(CCCCCCCC)C(=O)OCCCCCCCN(CCO)C(C)CCCCCCCCOC(=O)CCCCCCC` (stereo not drawn) [Compound 162, 7-((2-Hydroxyethyl)(10-(octanoyloxy)decan-2-yl)amino)heptyl 2-octyldecanoate] yielded a Size [1, 6] of 72.7 nm, an EE [2, 6] of 94.1% and a concentration at 6 h [3] of 261 ng/g. The concentration at 24 h [3] was 0 ng/g.

With `CCCCCCCCCOC(=O)C(C)CCCCCCN(CCO)CCCCCCCOC(=O)C(CCCCCCCC)CCCCCCCC` (stereo not drawn) [Compound 163, 7-((2-Hydroxyethyl)(7-methyl-8-(nonyloxy)-8-oxooctyl)amino)heptyl 2-octyldecanoate] the Size [1, 6] was 88.3 nm, the Size [1, 5] was 78.0 nm and the EE [2, 6] was 93.2%. For the same compound, the “Novel lipid/MC3 ratio, i.v.” value (luciferase (Luc) mRNA) was 3.45, the concentration at 6 h [3] was 32100 ng/g and the concentration at 24 h [3] was 17900 ng/g.

`CCCCCCCCCOC(=O)C(C)CCCCCCN(CCO)CCCCCCCC(=O)OC(CCCCCCCC)CCCCCCCC` (stereo not drawn) [Compound 164, Nonyl 8-((8-(heptadecan-9-yloxy)-8-oxooctyl)(2-hydroxyethyl)amino)-2-methyloctanoate] gave a Size [1, 6] of 84.5 nm, a Size [1, 5] of 75.7 nm and an EE [2, 6] of 91.2%. For the same compound, the “Novel lipid/MC3 ratio, i.v.” value (luciferase (Luc) mRNA) was 1.24, the concentration at 6 h [3] was 36000 ng/g and the concentration at 24 h [3] was 24200 ng/g.

`CCCCCCCCCC(=O)OC(C)CCCCCCN(CCO)CCCCCCCOC(=O)C(CCCCCCCC)CCCCCCCC` (stereo not drawn) [Compound 165, 7-((7-(Decanoyloxy)octyl)(2-hydroxyethyl)amino)heptyl 2-octyldecanoate] gave a Size [1, 6] of 84.6 nm, a Size [1, 5] of 74.3 nm and an EE [2, 6] of 92.9%. For the same compound, the “Novel lipid/MC3 ratio, i.v.” value (luciferase (Luc) mRNA) was 2.12, the concentration at 6 h [3] was 26900 ng/g and the concentration at 24 h [3] was 11700 ng/g.

With `CCCCCCCCCC(C)(O)CCCCCCCCN(CCO)CCCCCCCC(=O)OC(CCCCCCCC)CCCCCCCC` (stereo not drawn) [Compound 171, Heptadecan-9-yl 8-((9-hydroxy-9-methyloctadecyl)(2-hydroxyethyl)amino)octanoate] the Size [1, 6] was 100.5 nm, the EE [2, 6] was 85.0% and the concentration at 6 h [3] was 47000 ng/g. It also gave a concentration at 24 h [3] of 32800 ng/g.

Compound `CCCCCCCCC(CCCCCCCC)OC(=O)CCCCCCCN(CCO)CCCCCCCC(=O)O[C@H](C)CCCCCCCC` [Compound 172, (R)-Decan-2-yl 8-((8-(heptadecan-9-yloxy)-8-oxooctyl)(2-hydroxyethyl)amino)octanoate] has a Size [1, 6] of 77.3 nm, an EE [2, 6] of 95.4% and a concentration at 6 h [3] of 16000 ng/g. For the same compound, the concentration at 24 h [3] was 2990 ng/g.

Work on `CCCCCCCCCOC(=O)CCCCCCCN(CCO)CCCCCCCC(=O)OC(COCCCCCC)COCCCCCC` [Compound 183, 1,3-Bis(hexyloxy)propan-2-yl 8-((2-hydroxyethyl)(8-(nonyloxy)-8-oxooctyl)amino)octanoate] yielded a Size [1, 6] of 245.3 nm, an EE [2, 6] of 32.3% and a concentration at 6 h [3] of 69.9 ng/g. For the same compound, the concentration at 24 h [3] was 0 ng/g.

Work on `CCCCCCCCC(CCCCCCCC)OC(=O)CCCCCCCN(CCO)CCCCCCCC(=O)OCC(C)CCCCCCC` (stereo not drawn) [Compound 184, Heptadecan-9-yl 8-((2-hydroxyethyl)(8-((2-methylnonyl)oxy)-8-oxooctyl)amino)octanoate] yielded a Size [1, 6] of 77.2 nm, a Size [1, 7] of 85.8 nm and an EE [2, 6] of 94.2%. It also gave an EE [2, 7] of 96.5%, a concentration at 6 h [3] of 260 ng/g and a concentration at 24 h [3] of 0 ng/g.

With `CCCCCCCCCCCOC(=O)CCCCCN(CCO)CCCCCC(=O)OC(CCCCCCCCCC)CCCCCCCCCC` [Compound 185, Henicosan-11-yl 6-((2-hydroxyethyl)(6-oxo-6-(undecyloxy)hexyl)amino)hexanoate] the Size [1, 6] was 69.6 nm, the EE [2, 6] was 98.3% and the concentration at 6 h [3] was 31200 ng/g. It also gave a concentration at 24 h [3] of 27000 ng/g.

For `CCCCCCCOC(=O)CCCCCCCCCN(CCO)CCCCCCCCCC(=O)OC(CCCCCC)CCCCCC` [Compound 186, Heptyl 10-((2-hydroxyethyl)(10-oxo-10-(tridecan-7-yloxy)decyl)amino)decanoate], the Size [1, 6] was 92.2 nm, the EE [2, 6] was 87.2% and the concentration at 6 h [3] was 42.8 ng/g. The concentration at 24 h [3] was 0 ng/g.

In the case of `CCCCCCCCCOC(=O)CCCCCCCN(CCO)CCCCCCCC(=O)OCCCCCCCCC` [compound 138, Dinonyl 8,8′-((2-hydroxyethyl)azanediyl)dioctanoate], the EE [2, 6] is reported as 91.8%, the “Total Flux, Femur” value (modified luciferase) is reported as 1.58E+05 and the “Total Flux, Liver” value (modified luciferase) is reported as 3.66E+06. The “Total Flux, Lung” value (modified luciferase) was 9.47E+04, the “Total Flux, Spleen” value (modified luciferase) was 4.04E+06 and the “Cytokine induction, IL-6” value (IL-6, IP-10) was 23.38. For the same compound, the “Cytokine induction, IP-10” value (IL-6, IP-10) was 172.56, the “Lipid Purity, t = 96 h, 25° C.” value [4] was 98.64% and the “Lipid Purity, t = 96 h, 37° C.” value [4] was 97.82%. The “Lipid Purity, t = 0” value [4] was 97.59%.
